Reference: ChEMBL document CHEMBL2074200, “Reversal of P-glycoprotein-mediated MDR by 5,7,3',4',5'-pentamethoxyflavone and SAR” (Biochem Biophys Res Commun, 2004)

Biological target: ATP-dependent translocase ABCB1 (Homo sapiens, UniProt P08183)
Experiment: TP_TRANSPORTER: increase in Rhodamine 123 intracellular accumulation in AML-2/D100 cells
Type: functional, cell-based

Chain of ATP-dependent translocase ABCB1 (P08183 whole entry): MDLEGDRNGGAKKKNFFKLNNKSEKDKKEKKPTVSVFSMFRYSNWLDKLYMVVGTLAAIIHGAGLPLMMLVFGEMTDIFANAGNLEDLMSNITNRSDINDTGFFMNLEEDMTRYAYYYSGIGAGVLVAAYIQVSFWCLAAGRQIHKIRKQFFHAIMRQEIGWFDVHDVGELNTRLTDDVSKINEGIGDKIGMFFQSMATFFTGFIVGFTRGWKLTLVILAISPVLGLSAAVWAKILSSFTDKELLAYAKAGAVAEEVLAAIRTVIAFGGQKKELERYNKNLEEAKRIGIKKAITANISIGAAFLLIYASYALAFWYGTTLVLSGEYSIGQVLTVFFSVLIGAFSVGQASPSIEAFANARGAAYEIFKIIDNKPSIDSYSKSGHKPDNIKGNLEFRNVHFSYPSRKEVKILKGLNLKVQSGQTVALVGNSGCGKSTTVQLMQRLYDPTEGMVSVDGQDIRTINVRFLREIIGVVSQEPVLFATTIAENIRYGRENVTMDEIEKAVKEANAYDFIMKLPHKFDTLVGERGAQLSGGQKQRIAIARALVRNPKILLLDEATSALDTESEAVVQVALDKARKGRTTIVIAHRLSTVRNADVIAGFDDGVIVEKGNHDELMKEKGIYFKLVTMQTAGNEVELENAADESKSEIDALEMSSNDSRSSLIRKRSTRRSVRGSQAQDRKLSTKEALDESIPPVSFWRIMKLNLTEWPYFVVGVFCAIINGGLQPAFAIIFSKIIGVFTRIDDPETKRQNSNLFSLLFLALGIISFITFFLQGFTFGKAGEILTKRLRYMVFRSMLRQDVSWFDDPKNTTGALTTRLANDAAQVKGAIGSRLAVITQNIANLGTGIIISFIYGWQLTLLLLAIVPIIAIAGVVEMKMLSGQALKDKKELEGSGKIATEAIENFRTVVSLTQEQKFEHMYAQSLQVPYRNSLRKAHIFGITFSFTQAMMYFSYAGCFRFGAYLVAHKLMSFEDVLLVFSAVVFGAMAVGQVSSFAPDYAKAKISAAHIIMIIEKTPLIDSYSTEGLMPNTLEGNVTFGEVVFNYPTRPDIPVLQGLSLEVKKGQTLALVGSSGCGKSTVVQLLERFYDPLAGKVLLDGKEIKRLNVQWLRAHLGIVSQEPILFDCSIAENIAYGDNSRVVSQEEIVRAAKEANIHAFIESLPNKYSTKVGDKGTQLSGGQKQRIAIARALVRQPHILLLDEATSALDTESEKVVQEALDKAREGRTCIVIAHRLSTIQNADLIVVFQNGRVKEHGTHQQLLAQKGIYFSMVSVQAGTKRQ

Activity: inhibitor [+]
Compound: COc1cc(OC)c2c(=O)cc(-c3cc(OC)c(OC)c(OC)c3)oc2c1
